Source: PMC11527646, “Pharmacological blockade of the mast cell MRGPRX2 receptor supports investigation of its relevance in skin disorders” (Frontiers in Immunology, 2024)
Read-outs that look alike come from different tables or passages of the source.

Tests used:
MRGPRX2 [1] = biological target: T1, MRGPRX2 (Homo sapiens, UniProt Q96LB1); assay: Ca2+ mobilization assay (FLIPR TETRA) in HEK293-MRGPRX2/Gα15 cells; type: cell-based; parameters: expressed in transfected cells; conditions: for EC50: agonist mode, highest concentration tested 30 μM, read-out: Activation of Ca2+ Mobilization EC50
T1 sequence (Q96LB1 1-330): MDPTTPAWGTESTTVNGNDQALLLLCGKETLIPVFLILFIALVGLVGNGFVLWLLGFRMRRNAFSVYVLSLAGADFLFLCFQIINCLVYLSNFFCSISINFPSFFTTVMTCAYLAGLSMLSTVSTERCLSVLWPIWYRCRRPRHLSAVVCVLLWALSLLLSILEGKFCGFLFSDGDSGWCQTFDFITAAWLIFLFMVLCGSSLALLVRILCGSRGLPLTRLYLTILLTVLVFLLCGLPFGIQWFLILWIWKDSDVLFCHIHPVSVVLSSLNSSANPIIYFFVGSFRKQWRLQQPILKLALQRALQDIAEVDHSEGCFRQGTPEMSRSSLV
Experimental: A Ca^2+ mobilization assay was used to screen for small-molecule compounds with agonist or antagonist activity against human MRGPRX2 using HEK293-MRGPRX2/Gα15 cells. Two million small-molecule compounds in GSK collection were screened at single concentration of 10 μM on FLIPR^TETRA (Molecular Devices) instruments in dual detection mode for both activation and inhibition activities. Cortistatin 14 at approximately EC80 concentration was used as the activation ligand for the inhibition phase of the high-throughput screening. Compounds of interest were followed up and characterized in concentration response curves to determine their mode of activity, potency, and selectivity.
Figure 1 Identification of two structurally distinct MRGPRX2 antagonists: Compound (A) and Compound (B). Calcium mobilization assays were performed in FLIPR^TETRA (Molecular Devices) with two novel MRGPRX2 antagonists using HEK293 cells overexpressing MRGPRX2 and Gα15 proteins. […] Dose-dependent inhibition (A) of Cortistatin 14–mediated MRGPRX2 activation was measured, and antagonist potencies (B) are presented as mean ± SEM of 66 or 22 independent experiments for Compound A and Compound B, respectively.

C3aR1 = biological target: T2, C3aR1 (Homo sapiens, UniProt Q16581); conditions: for Effect on C3a-stimulated LAD2 degranulation: increasing concentrations of antagonist
T2 sequence (Q16581 1-482): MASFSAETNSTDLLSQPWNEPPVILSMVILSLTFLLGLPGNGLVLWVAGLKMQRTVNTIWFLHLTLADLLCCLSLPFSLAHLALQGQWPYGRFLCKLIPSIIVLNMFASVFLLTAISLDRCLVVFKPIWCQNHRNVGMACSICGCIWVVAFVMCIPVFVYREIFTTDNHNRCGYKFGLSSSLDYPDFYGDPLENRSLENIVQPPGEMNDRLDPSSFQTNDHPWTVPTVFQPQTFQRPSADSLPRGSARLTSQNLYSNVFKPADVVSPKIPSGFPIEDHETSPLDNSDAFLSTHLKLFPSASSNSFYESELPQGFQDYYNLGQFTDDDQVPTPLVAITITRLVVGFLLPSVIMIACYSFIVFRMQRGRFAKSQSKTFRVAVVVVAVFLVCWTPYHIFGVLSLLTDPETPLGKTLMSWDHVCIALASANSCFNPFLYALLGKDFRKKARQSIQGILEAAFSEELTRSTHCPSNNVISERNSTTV
Excerpt: Release of β-hexosaminidase from LAD2 cells was followed as a measurement of mast cell degranulation using a method described previously ([4]).
Potency data are presented as mean ± SEM.

MRGPRX2 [2] = biological target: T1, MRGPRX2; assay: Calcium imaging of peritoneal mast cells isolated from human MRGPRX2 KI mice; type: cell-based; conditions: 100 nM antagonist; Cpd 48/80 1 μg/mL; n ≥ 4
Experimental: Mouse peritoneal mast cells were purified and imaged as previously described ([4]). Mast cells were resuspended at 5 × 10^5 to 1 × 10^6 cells/mL in DMEM with 10% FBS and recombinant mouse SCF (25 ng/mL) and plated onto glass cover slips coated with fibronectin (30 µg/mL). For imaging, after 2 h of incubation at 37°C, 5% CO2, mast cells were loaded with Fluo-4 along with 0.02% Pluronic F-127 for 30 min at room temperature, washed three times in calcium imaging buffer (CIB), and used immediately for imaging. Cells were used within 2 h of loading. Cells were identified as responding if the [Ca^2+] rose by at least 50% for >10 s.
Figure 6 Oral treatment with the potent and selective MRGPRX2 antagonist, Compound B (3 mg/kg), blocks Cpd 48/80–induced itch response using human MRGPRX2 knock-in mice. […] Average ± SD blood-free concentration of antagonist measured at end of “itch” observation period was 19 ± 16 nM Compound B.

D2 receptor (DRD2) = biological target: T3, D2 receptor (DRD2) (Homo sapiens, UniProt P14416); assay: GPCR selectivity cellular assay; type: cell-based
T3 construct: expressed in transfected cells
T3 sequence (P14416 whole entry): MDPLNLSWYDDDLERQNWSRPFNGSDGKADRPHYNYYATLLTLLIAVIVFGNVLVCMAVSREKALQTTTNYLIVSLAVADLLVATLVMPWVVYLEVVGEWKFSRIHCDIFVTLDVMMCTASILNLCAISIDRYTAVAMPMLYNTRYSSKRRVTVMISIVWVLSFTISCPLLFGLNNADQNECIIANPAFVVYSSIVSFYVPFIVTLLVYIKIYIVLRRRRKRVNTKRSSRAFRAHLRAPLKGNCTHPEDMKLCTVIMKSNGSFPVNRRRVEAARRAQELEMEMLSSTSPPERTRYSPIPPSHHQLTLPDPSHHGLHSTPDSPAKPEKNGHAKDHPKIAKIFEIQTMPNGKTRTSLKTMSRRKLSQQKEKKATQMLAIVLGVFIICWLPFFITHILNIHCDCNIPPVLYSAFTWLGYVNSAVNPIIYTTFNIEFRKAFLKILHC
Experimental: (§1) tagonists, with little activity detected on other GPCRs. Antagonist and/or agonist activities of the two compounds were determined in cellular assays for 20 human G-protein coupled receptors (GPCR) beside MRGPRX2. Recombinant over-expression systems in mammalian cells were used for all assays listed in this table. […]
(§2) reported as ‘>’ the highest compound concentration allowed in that assay.
(§3) GPCR Target Name Gene symbol Mode of Activity Compound-A Compound-B […]
(§4) Agonist Activity (EC50 ) or Antagonist Activity (IC50 ), nM […]

H3 receptor (HRH3) = biological target: T4, H3 receptor (HRH3) (Homo sapiens, UniProt Q9Y5N1); assay: GPCR selectivity cellular assay; type: cell-based; conditions: Antagonism; read-out: Antagonist Activity (IC50)
T4 construct: expressed in transfected cells
T4 sequence (Q9Y5N1 whole entry): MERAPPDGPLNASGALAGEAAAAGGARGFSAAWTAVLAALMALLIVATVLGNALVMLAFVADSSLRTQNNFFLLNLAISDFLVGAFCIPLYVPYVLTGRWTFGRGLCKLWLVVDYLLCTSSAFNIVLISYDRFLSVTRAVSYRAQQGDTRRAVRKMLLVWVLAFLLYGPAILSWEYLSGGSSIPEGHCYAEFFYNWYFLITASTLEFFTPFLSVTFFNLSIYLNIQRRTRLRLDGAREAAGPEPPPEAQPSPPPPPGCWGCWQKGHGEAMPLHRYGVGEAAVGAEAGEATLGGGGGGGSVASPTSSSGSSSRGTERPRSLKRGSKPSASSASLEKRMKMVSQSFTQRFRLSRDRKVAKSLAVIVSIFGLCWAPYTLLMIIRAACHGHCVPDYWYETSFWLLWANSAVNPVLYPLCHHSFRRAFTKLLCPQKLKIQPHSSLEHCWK
Experimental: as §1, §2, §3, §4

[3] = biological target: T5, a2C-Adrenoreceptor (ADRA2C) (Homo sapiens, UniProt P18825); assay: GPCR selectivity cellular assay; type: cell-based; conditions: Agonism; read-out: Agonist Activity (EC50)
T5 construct: expressed in transfected cells
T5 sequence (P18825 whole entry): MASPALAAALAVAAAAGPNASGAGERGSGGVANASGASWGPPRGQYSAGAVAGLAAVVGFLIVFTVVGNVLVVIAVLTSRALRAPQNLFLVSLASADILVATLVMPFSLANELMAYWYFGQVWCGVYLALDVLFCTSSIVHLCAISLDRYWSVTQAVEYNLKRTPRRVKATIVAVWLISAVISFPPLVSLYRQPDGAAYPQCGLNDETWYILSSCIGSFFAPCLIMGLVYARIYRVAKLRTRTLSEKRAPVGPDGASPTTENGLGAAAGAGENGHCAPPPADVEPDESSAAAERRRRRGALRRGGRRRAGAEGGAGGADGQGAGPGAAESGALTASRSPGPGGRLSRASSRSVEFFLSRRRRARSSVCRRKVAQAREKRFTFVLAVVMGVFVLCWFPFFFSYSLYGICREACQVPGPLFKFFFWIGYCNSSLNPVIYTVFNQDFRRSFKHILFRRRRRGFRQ
Experimental: as §1, §2, §3, §4

µ-Receptor (OPRM1) = µ-Receptor (OPRM1) (Homo sapiens, UniProt P35372); assay: GPCR selectivity cellular assay; type: cell-based; conditions: Agonism; read-out: Agonist Activity (EC50)
µ-Receptor (OPRM1), sequence (P35372 whole entry): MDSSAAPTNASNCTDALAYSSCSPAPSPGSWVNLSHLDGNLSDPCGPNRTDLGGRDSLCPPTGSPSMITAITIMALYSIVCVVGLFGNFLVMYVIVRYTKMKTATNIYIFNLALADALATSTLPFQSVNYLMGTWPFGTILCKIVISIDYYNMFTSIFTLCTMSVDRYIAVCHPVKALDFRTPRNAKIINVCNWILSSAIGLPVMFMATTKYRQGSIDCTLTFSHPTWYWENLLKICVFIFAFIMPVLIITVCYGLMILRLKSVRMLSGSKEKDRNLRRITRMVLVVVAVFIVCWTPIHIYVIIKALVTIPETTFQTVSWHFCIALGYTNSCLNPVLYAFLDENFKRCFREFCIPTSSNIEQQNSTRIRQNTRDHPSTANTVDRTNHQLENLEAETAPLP
Experimental: as §1, §2, §3, §4

[4] = biological target: T6, ß2-Adrenoreceptor (ADRB2) (Homo sapiens, UniProt P07550); assay: GPCR selectivity cellular assay; type: cell-based
T6 construct: expressed in transfected cells
T6 sequence (P07550 whole entry): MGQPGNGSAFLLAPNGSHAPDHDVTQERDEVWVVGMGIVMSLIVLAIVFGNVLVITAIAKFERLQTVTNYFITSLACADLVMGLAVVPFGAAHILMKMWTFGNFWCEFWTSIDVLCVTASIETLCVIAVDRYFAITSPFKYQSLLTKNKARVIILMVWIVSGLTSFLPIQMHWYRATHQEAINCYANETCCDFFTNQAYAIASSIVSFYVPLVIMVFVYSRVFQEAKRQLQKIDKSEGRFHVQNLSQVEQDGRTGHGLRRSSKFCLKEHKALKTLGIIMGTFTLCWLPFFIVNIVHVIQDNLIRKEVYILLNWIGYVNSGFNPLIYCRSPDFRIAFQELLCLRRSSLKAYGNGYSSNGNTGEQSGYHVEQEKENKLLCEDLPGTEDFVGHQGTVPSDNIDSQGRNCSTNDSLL
Experimental: as §1, §2, §3, §4

[5] = Agonism, read-out: Agonist Activity (EC50)
[6] = Antagonism, read-out: Antagonist Activity (IC50)

| SMILES | IC50 (MRGPRX2 [1]) [µM] | EC50 (MRGPRX2 [1]) [µM] | IC50 (C3aR1) [µM] | Effect on C3a-stimulated LAD2 degranulation (C3aR1) | Effect on Cpd 48/80-mediated activation of peritoneal mast cells (MRGPRX2 [2]) | EC50 (D2 receptor (DRD2); [5]) [µM] | IC50 (D2 receptor (DRD2); [6]) [µM] | IC50 (H3 receptor (HRH3)) [µM] | EC50 [3] [µM] | EC50 (µ-Receptor (OPRM1)) [µM] | EC50 [4, 5] [µM] | IC50 [4, 6] [µM] | In vivo PK profile (Pharmacokinetic profile) | Oral bioavailability (Pharmacokinetic profile; in vivo, po) | IC50 (MRGPRX2 [1]; Cortistatin 14 at approx. EC80, mean ± SEM of 66 (Compound A) or 22 (Compound B) experiments, read-out: Inhibition of Cort-14 Mediated MRGPRX2 Activation IC50) [µM] |
| --- | --- | --- | --- | --- | --- | --- | --- | --- | --- | --- | --- | --- | --- | --- | --- |
| CC1(C)C(C(=O)Nc2ccccn2)C1(C)C [Compound A] | 0.05 | > 30 | > 50 | lack of an effect | – | – | – | – | – | – | – | – | – | – | – |
| C[C@@H](C(=O)Nc1cnc(Oc2ccc(F)cc2F)cn1)N1CCC(F)(F)[C@@H](c2cc[n+]([O-])cc2)C1 [Compound B] | – | > 30 | > 50 | lack of an effect | completely antagonize | > 100 | > 100 | > 50 | > 100 | > 100 | > 100 | > 100 | good in vivo PK profile | good oral bioavailability | 0.0029 |
